According to US12122763B2, “Substituted piperidines for androgen receptor degradation” (UBIX THERAPEUTICS, INC., priority 2020, dated 2024):

Biological target: T1, Androgen Receptor (AR) protein (Homo sapiens, UniProt P10275, T878A)
T1 construct: endogenous in cells; host or cells: LNCaP
Assay: Androgen Receptor (AR) protein degradation assay in LNCaP cells, western blotting
Format: cell-based
Details: 20 h; for inhibition at 0.01 µM: 0.01 μM compound; for inhibition at 0.1 µM: 0.1 μM compound; for inhibition at 1 µM: 1 μM compound
Summary of the method: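 AR protein level was detected by western blot (ECL) against GAPDH or β-actin controls, with 8 μg lysate protein loaded per lane after BCA quantification. Lysates came from LNCaP cells exposed to test compound for 20 h, following 3 days of growth in RPMI/10% FBS.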

T1 sequence (P10275 whole entry T878A): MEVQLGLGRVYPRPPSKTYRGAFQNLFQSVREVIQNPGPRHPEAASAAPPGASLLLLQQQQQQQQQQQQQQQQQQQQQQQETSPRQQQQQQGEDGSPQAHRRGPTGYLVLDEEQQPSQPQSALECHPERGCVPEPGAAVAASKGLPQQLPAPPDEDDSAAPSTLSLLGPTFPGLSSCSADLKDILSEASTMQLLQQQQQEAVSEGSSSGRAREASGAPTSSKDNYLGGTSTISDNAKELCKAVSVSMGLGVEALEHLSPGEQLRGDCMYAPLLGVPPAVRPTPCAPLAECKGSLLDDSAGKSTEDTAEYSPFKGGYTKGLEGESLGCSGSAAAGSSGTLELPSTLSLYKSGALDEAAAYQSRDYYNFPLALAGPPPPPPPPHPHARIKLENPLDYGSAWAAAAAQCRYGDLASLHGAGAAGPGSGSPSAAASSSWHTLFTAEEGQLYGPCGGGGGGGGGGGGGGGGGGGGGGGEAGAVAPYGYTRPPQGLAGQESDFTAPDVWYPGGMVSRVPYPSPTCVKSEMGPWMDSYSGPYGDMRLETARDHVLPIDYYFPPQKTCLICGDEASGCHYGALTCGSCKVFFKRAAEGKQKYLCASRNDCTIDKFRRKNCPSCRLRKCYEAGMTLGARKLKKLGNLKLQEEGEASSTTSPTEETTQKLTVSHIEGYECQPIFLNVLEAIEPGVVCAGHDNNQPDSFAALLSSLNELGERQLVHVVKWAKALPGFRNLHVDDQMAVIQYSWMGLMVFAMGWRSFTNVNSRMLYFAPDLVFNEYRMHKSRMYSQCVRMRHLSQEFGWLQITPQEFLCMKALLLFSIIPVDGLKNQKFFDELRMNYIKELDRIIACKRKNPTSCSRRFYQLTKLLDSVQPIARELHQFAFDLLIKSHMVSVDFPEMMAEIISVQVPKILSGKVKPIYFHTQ
T1 sequence (Q96SW2 whole entry partner): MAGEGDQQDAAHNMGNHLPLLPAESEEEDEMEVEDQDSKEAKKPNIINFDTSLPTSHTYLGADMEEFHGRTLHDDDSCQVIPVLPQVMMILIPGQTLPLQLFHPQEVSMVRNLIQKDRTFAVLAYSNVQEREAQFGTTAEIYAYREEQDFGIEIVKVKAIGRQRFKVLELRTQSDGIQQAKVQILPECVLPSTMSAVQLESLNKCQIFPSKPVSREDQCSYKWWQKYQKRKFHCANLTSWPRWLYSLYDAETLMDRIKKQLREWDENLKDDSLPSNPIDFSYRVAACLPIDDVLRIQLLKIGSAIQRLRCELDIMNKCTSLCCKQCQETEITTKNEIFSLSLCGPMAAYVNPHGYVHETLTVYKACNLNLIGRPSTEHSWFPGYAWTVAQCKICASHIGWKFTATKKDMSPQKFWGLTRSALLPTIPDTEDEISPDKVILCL

SMILES	inhibition at 0.01 µM [%]	inhibition at 0.1 µM [%]	inhibition at 1 µM [%]
CC1(CN2CCC(Oc3ccc(NC(=O)C4CCN(c5ccc(C#N)c(C(F)(F)F)c5)CC4)nc3)CC2)CN(c2ccc3c(c2)C(=O)N(C2CCC(=O)NC2=O)C3=O)C1 (stereo not drawn) [Example 172, 1-(4-cyano-3-(trifluoromethyl)phenyl)-N-(5-((1-((1-(2-(2,6-dioxopiperidin-3-yl)-1,3-dioxoisoindolin-5-yl)-3-methylazetidin-3-yl)methyl)piperidin-4-yl)oxy)pyridin-2-yl)piperidine-4-carboxamide]	56	91	91
N#Cc1ccc(N2CCC(C(=O)Nc3ccc(OC4CN(CC5CCN(c6ccc7c(c6)C(=O)N(C6CCC(=O)NC6=O)C7=O)CC5)C4)cn3)CC2)cc1C(F)(F)F (stereo not drawn) [Example 173, 1-(4-cyano-3-(trifluoromethyl)phenyl)-N-(5-((1-((1-(2-(2,6-dioxopiperidin-3-yl)-1,3-dioxoisoindolin-5-yl)piperidin-4-yl)methyl)azetidin-3-yl)oxy)pyridin-2-yl)piperidine-4-carboxamide]	58	90	92
N#Cc1ccc(N2CCC(C(=O)Nc3ccc(OCC4CCN(CC5CCN(c6ccc7c(c6)C(=O)N(C6CCC(=O)NC6=O)C7=O)CC5)CC4)cn3)CC2)cc1C(F)(F)F (stereo not drawn) [Example 174, 1-(4-cyano-3-(trifluoromethyl)phenyl)-N-(5-((1-((1-(2-(2,6-dioxopiperidin-3-yl)-1,3-dioxoisoindolin-5-yl)piperidin-4-yl)methyl)piperidin-4-yl)methoxy)pyridin-2-yl)piperidine-4-carboxamide]	73	91	95
N#Cc1ccc(N2CCC(C(=O)Nc3ccc(OCCC4CCN(CC5CCN(c6ccc7c(c6)C(=O)N(C6CCC(=O)NC6=O)C7=O)CC5)CC4)cn3)CC2)cc1C(F)(F)F (stereo not drawn) [Example 175, 1-(4-cyano-3-(trifluoromethyl)phenyl)-N-(5-(2-(1-((1-(2-(2,6-dioxopiperidin-3-yl)-1,3-dioxoisoindolin-5-yl)piperidin-4-yl)methyl)piperidin-4-yl)ethoxy)pyridin-2-yl)piperidine-4-carboxamide]	70	95	97
N#Cc1ccc(N2CCC(C(=O)Nc3ccc(OCCN4CCN(CC(=O)Nc5cccc(NC6CCC(=O)NC6=O)c5)CC4)cn3)CC2)cc1C(F)(F)F (stereo not drawn) [Example 176, 1-(4-cyano-3-(trifluoromethyl)phenyl)-N-(5-(2-(4-(2-((3-((2,6-dioxopiperidin-3-yl)amino)phenyl)amino)-2-oxoethyl)piperazin-1-yl)ethoxy)pyridin-2-yl)piperidine-4-carboxamide]	-2	-22	16
N#Cc1ccc(N2CCC(C(=O)Nc3ccc(N4CCC(CN5CCN(CC(=O)Nc6cccc(NC7CCC(=O)NC7=O)c6)CC5)CC4)cn3)CC2)cc1C(F)(F)F (stereo not drawn) [Example 177, 1-(4-cyano-3-(trifluoromethyl)phenyl)-N-(5-(4-((4-(2-((3-((2,6-dioxopiperidin-3-yl)amino)phenyl)amino)-2-oxoethyl)piperazin-1-yl)methyl)piperidin-1-yl)pyridin-2-yl)piperidine-4-carboxamide]	14	37	35
N#Cc1ccc(N2CCC(C(=O)Nc3ccc(OCCN4CCC(Oc5ccc6c(c5)C(=O)N(C5CCC(=O)NC5=O)C6=O)CC4)cn3)CC2)cc1C(F)(F)F (stereo not drawn) [Example 178, 1-(4-cyano-3-(trifluoromethyl)phenyl)-N-(5-(2-(4-((2-(2,6-dioxopiperidin-3-yl)-1,3-dioxoisoindolin-5-yl)oxy)piperidin-1-yl)ethoxy)pyridin-2-yl)piperidine-4-carboxamide]	23	64	87
CC1(CN2CCN(CC3CCN(c4ccc5c(c4)C(=O)N(C4CCC(=O)NC4=O)C5=O)CC3)CC2)CN(c2ccc(NC(=O)C3CCN(c4ccc(C#N)c(C(F)(F)F)c4)CC3)nc2)C1 (stereo not drawn) [Example 179, 1-(4-cyano-3-(trifluoromethyl)phenyl)-N-(5-(3-((4-((1-(2-(2,6-dioxopiperidin-3-yl)-1,3-dioxoisoindolin-5-yl)piperidin-4-yl)methyl)piperazin-1-yl)methyl)-3-methylazetidin-1-yl)pyridin-2-yl)piperidine-4-carboxamide]	73	98	97
CC1(CN2CCC(COc3ccc4c(c3)C(=O)N(C3CCC(=O)NC3=O)C4=O)CC2)CN(c2ccc(NC(=O)C3CCN(c4ccc(C#N)c(C(F)(F)F)c4)CC3)nc2)C1 (stereo not drawn) [Example 180, 1-(4-cyano-3-(trifluoromethyl)phenyl)-N-(5-(3-((4-(((2-(2,6-dioxopiperidin-3-yl)-1,3-dioxoisoindolin-5-yl)oxy)methyl)piperidin-1-yl)methyl)-3-methylazetidin-1-yl)pyridin-2-yl)piperidine-4-carboxamide]	36	97	98
N#Cc1ccc(N2CCC(C(=O)Nc3ccc(OCC4CCN(CC5CCN(c6cc7c(cc6F)C(=O)N(C6CCC(=O)NC6=O)C7=O)CC5)CC4)cn3)CC2)cc1C(F)(F)F (stereo not drawn) [Example 181, 1-(4-cyano-3-(trifluoromethyl)phenyl)-N-(5-((1-((1-(2-(2,6-dioxopiperidin-3-yl)-6-fluoro-1,3-dioxoisoindolin-5-yl)piperidin-4-yl)methyl)piperidin-4-yl)methoxy)pyridin-2-yl)piperidine-4-carboxamide]	75	93	97
N#Cc1ccc(N2CCC(C(=O)Nc3ccc(CC4CCN(CC5CCN(c6cc7c(cc6F)C(=O)N(C6CCC(=O)NC6=O)C7=O)CC5)CC4)cn3)CC2)cc1C(F)(F)F (stereo not drawn) [Example 182, 1-(4-cyano-3-(trifluoromethyl)phenyl)-N-(5-((1-((1-(2-(2,6-dioxopiperidin-3-yl)-6-fluoro-1,3-dioxoisoindolin-5-yl)piperidin-4-yl)methyl)piperidin-4-yl)methyl)pyridin-2-yl)piperidine-4-carboxamide]	72	96	98
N#Cc1ccc(N2CCC(C(=O)Nc3ccc(OCC4CCN(CC5CN(c6ccc7c(c6)C(=O)N(C6CCC(=O)NC6=O)C7=O)C5)CC4)cn3)CC2)cc1C(F)(F)F (stereo not drawn) [Example 183, 1-(4-cyano-3-(trifluoromethyl)phenyl)-N-(5-((1-((1-(2-(2,6-dioxopiperidin-3-yl)-1,3-dioxoisoindolin-5-yl)azetidin-3-yl)methyl)piperidin-4-yl)methoxy)pyridin-2-yl)piperidine-4-carboxamide]	72	87	93
CC1(CN2CCC(COc3ccc(NC(=O)C4CCN(c5ccc(C#N)c(C(F)(F)F)c5)CC4)nc3)CC2)CN(c2ccc3c(c2)C(=O)N(C2CCC(=O)NC2=O)C3=O)C1 (stereo not drawn) [Example 184, 1-(4-cyano-3-(trifluoromethyl)phenyl)-N-(5-((1-((1-(2-(2,6-dioxopiperidin-3-yl)-1,3-dioxoisoindolin-5-yl)-3-methylazetidin-3-yl)methyl)piperidin-4-yl)methoxy)pyridin-2-yl)piperidine-4-carboxamide]	72	91	97
